Test results: paper PMC6397705 (Molecular cancer therapeutics, 2019)

Tests used:
[1] = tested on: PP2A; settings: cited from earlier work
[2] = target: T1, PP2AC (Bos taurus, UniProt P67774); experiment: DiFMUP-based phosphatase inhibition assay; assay type: biochemical, bovine
[3] = target: T1, PP2AC; experiment: [32P]-phosphohistone phosphatase assay; assay type: biochemical, bovine
[4] = target: T2, PPP5C (Homo sapiens, UniProt P53041); experiment: [32P]-phosphohistone phosphatase assay; assay type: biochemical
[5] = target: T1, PP2AC; experiment: Phosphopeptide; assay type: biochemical, bovine
[6] = target: T2, PPP5C; experiment: Phosphopeptide; assay type: biochemical
[7] = tested on: PP2AC versus PPP5C; experiment: Selectivity over the three substrate assays; assay type: biochemical; settings: with all three substrates
[8] = in vitro; assay type: cell-based; settings: human, EC50, cytotoxicity in U-937 cells, 72 hours, n=16
[9] = tested on: HEK-293 cells; experiment: Western analysis of ribosomal S6; assay type: cell-based, human; settings: wild-type HEK-293 cells, 0–2 μM, 3 hours
[10] = tested on: PPP1C/PPP2AC/PPP5C/ PPP6C; settings: cited from earlier work
[11] = tested on: solid tumor patients; settings: of 46 solid tumor patients, Phase I; cited from earlier work

T1 sequence (P67774 whole entry): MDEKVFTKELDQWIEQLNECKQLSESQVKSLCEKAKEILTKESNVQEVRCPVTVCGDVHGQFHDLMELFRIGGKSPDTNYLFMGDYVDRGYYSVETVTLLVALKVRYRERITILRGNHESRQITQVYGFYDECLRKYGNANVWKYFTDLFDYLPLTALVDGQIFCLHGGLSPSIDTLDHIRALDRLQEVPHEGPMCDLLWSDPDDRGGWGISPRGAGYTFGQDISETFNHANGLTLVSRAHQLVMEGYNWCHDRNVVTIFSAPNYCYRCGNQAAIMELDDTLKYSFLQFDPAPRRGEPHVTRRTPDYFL
T2 sequence (P53041 whole entry): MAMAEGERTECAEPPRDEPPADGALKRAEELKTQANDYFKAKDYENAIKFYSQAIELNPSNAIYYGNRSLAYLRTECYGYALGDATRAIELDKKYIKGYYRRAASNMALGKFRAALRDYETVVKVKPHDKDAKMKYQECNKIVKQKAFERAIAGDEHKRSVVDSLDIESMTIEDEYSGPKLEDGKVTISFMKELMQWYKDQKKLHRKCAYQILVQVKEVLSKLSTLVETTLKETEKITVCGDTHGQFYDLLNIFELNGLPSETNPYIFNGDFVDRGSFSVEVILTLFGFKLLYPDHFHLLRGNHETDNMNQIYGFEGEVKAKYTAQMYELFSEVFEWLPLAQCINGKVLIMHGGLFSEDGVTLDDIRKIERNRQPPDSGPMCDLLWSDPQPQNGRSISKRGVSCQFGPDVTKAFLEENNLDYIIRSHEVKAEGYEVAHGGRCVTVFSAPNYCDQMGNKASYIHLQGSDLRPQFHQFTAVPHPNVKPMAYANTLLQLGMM

For “4-(3-carboxy-7-oxa-bicyclo [2.2.1] heptane-2-carbonyl)piperazine-1-carboxylic acid tert- butyl ester [LB-102]”, the “selectivity for PP2A” value [1] is listed as > 10,000 fold.

For `CN1CCN(C(=O)C2C3CCC(O3)C2C(=O)O)CC1` (centres unmarked) [LB-100, 3-(4-methylpiperazine-1-carbonyl)-7-oxabicyclo[2.2.1]heptane-2-carboxylic acid], the IC50 [2] was 0.39 µM, the IC50 [3] was 0.64 µM and the IC50 [4] was 4.9 µM. For the same compound, the IC50 [5] was 1.27 µM, the IC50 [6] was 6.64 µM and the “selectivity for PP2AC versus PPP5C” value [7] was 4–7 fold. The EC50 ([8]; LB-100 alone) was 11.7 µM, the EC50 ([8]; LB-100 and 500 nM dexamethasone) was 5.48 µM and the “phosphorylation of ribosomal protein S6 (Ser235/236)” value [9] was “induced in the wild-type HEK-293 cells by LB-100 in a dose-dependent manner”.

In the case of `C[C@@]12C(=O)OC(=O)[C@]1(C)[C@H]1CC[C@@H]2O1` [cantharidin], the “affinity for ser/thr phosphatases 1, 2A, 5, and 6” value ([10]; catalytic inhibitor) is listed as “submicromolar to low micromolar”.

For `C[C@@](O)(/C=C/[C@H]1CC=CC(=O)O1)[C@@H](C[C@@H](O)\C=C/C=C\C=C\CO)OP(=O)(O)O` [fostriecin], the “disease stability, number of patients” value [11] is listed as 16.

In the case of Microcystin, the IC50 [10] is given as under 0.002 µM.

In the case of nodularin, the IC50 [10] is given as under 0.002 µM.
